Data as given in ChEMBL document CHEMBL4251711, “Bioactive Indolocarbazoles from the Marine-Derived Streptomyces sp. DT-A61” (J Nat Prod, 2018).

How the values were obtained:
[1] = target: T1, Mitogen-activated protein kinase kinase kinase 5 (Homo sapiens, UniProt Q99683); assay: Inhibition of ASK1 (unknown origin) by HTRF assay
T1 sequence (Q99683 whole entry): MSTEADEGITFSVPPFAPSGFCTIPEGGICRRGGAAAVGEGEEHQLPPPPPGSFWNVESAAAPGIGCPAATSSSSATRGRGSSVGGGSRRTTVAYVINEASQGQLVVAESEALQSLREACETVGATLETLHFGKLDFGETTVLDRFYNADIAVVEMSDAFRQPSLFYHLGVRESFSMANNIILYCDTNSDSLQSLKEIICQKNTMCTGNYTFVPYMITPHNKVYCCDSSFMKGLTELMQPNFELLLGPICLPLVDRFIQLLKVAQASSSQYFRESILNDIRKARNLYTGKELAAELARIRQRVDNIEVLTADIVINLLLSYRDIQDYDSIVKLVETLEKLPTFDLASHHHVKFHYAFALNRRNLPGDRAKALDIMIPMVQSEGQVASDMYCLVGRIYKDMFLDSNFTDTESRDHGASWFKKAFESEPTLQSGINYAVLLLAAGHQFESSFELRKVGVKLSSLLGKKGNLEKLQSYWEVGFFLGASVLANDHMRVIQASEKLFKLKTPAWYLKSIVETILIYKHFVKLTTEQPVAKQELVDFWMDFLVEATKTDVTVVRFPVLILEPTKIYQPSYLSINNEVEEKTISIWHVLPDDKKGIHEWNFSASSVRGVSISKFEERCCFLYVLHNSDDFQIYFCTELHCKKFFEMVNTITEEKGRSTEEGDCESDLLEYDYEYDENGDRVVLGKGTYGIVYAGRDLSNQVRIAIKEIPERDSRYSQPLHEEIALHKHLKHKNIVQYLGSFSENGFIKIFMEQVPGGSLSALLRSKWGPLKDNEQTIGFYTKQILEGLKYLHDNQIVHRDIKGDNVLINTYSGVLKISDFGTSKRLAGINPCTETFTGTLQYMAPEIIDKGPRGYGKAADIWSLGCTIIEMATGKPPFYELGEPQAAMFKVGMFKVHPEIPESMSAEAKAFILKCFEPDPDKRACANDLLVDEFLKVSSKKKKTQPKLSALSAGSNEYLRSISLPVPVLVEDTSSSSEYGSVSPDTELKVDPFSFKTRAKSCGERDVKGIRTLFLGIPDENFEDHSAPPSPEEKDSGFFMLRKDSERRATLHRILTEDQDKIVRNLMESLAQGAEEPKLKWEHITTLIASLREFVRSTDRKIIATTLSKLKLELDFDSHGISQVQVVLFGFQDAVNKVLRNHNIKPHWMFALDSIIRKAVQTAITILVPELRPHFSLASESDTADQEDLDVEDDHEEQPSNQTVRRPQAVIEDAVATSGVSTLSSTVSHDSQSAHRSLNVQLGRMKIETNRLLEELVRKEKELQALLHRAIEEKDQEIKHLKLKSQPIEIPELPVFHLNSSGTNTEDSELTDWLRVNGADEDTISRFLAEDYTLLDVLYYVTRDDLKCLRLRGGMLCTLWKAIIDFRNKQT

[2] = target: Protein kinase C alpha type (Homo sapiens, UniProt P17252); assay: Inhibition of PKCalpha (unknown origin) by HTRF assay
[3] = target: Rho-associated protein kinase 2 (Homo sapiens, UniProt O75116); assay: Inhibition of ROCK2 (unknown origin) by HTRF assay
PC-3 = assay: Cytotoxicity against human PC3 cells after 72 hrs by SRB assay; assay type: functional, cell-based; conditions: PC-3, 72 h

Sequence of Rho-associated protein kinase 2 (O75116 whole entry): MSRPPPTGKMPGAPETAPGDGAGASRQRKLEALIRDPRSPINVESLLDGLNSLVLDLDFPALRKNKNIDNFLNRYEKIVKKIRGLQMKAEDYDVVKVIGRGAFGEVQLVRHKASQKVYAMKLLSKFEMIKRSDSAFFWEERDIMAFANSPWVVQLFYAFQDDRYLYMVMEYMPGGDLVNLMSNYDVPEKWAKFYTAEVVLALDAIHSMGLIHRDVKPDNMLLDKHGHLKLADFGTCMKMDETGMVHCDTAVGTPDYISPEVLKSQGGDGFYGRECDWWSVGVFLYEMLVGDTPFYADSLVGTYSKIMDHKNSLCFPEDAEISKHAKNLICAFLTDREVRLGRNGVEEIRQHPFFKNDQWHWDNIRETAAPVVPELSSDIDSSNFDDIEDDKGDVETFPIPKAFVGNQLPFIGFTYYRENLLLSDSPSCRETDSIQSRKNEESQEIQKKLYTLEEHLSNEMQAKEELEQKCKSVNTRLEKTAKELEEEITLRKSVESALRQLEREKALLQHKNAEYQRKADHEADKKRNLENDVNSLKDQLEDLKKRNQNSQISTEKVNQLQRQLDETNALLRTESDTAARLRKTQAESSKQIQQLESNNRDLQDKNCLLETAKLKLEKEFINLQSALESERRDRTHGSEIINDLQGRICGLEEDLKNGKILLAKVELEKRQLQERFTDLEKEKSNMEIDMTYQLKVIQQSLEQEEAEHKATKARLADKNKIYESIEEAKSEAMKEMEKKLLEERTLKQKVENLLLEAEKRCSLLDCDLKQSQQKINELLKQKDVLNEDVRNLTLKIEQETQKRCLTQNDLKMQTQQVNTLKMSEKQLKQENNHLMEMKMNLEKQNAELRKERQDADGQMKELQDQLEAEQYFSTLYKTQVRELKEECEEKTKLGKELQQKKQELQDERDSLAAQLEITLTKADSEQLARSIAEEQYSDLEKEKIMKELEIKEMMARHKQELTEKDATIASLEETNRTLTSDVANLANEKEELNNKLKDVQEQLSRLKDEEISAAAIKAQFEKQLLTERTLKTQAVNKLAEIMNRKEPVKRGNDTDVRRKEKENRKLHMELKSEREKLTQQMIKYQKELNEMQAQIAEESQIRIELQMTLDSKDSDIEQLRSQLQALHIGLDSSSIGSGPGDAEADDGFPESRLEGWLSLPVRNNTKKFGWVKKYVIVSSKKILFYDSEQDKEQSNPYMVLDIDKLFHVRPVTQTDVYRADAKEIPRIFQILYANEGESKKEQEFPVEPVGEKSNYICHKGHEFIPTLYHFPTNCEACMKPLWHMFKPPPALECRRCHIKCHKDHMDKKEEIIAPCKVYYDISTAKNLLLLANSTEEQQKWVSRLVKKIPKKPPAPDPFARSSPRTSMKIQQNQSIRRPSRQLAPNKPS

IC50 [1] [µM]	IC50 [2] [µM]	IC50 [3] [µM]	Structure (SMILES)	IC50 (PC-3) [µM]
0.77	0.092	0.26	CC(=O)N[C@H]1C[C@H]2O[C@@](C)([C@@H]1O)n1c3ccccc3c3c4c(c5c6ccccc6n2c5c31)C(=O)NC4	0.16
> 50	0.097	1.4	CC(=O)N[C@@H]1C[C@H](n2c3ccccc3c3c4c(c5c6cc(O)ccc6[nH]c5c32)CNC4=O)O[C@@H](C)[C@@H]1O	–
> 50	1.4	0.34	C[C@H]1O[C@@H]2C[C@](O)([C@H]1O)n1c3ccccc3c3c4c(c5c6cc(O)ccc6n2c5c31)C(=O)NC4	5.6
> 50	1.4	0.91	COC1NC(=O)c2c1c1c3ccccc3[nH]c1c1[nH]c3ccc(O)cc3c21 (stereo not given)	18
0.74	0.98	0.34	O=C1NCc2c1c1c3ccccc3[nH]c1c1[nH]c3ccc(O)cc3c21	8
6.4	0.46	0.04	CC(=O)N[C@@H]1C[C@H](n2c3ccc(O)cc3c3c4c(c5c6ccccc6[nH]c5c32)CNC4=O)O[C@@H](C)[C@@H]1O	3.6
1.1	0.079	0.15	C[C@@H]1O[C@@H](n2c3ccc(O)cc3c3c4c(c5c6ccccc6[nH]c5c32)CNC4=O)C[C@@H](N)[C@H]1O	3.1
4.1	2.1	0.97	C[C@@H]1O[C@@H]2C[C@](O)([C@H]1O)n1c3ccccc3c3c4c(c5c6cc(O)ccc6n2c5c31)C(=O)NC4	39
3	3.2	0.0057	O=C1NCc2c1c1c3cc(O)ccc3[nH]c1c1[nH]c3ccccc3c21	21
